± gives the expanded uncertainty stated by the source.
Conditions: 101.33 kPa, Liquid; for electrical conductivity: Alternating current cell with electrodes; for viscosity: Concentric cylinders viscometry; for mass density: Vibrating tube method

Cn1cc[n+](CCO)c1.O=S(=O)([N-]S(=O)(=O)C(F)(F)F)C(F)(F)F
Conditions	electrical conductivity [S/m]	mass density [kg/m3]	viscosity [mPa·s]
283.15 K	0.132 ± 0.0028	1588.6 ± 1.2	213.4 ± 6
288.15 K	0.179 ± 0.0037	1583.6 ± 1.2	153.7 ± 3.9
293.15 K	0.237 ± 0.005	1578.6 ± 1.2	114.1 ± 2.7
298.15 K	0.305 ± 0.006	1573.7 ± 1.2	86.89 ± 1.9
303.15 K	0.387 ± 0.008	1568.8 ± 1.2	67.66 ± 1.5
308.15 K	0.481 ± 0.01	1563.9 ± 1.2	53.88 ± 1.1
313.15 K	0.589 ± 0.012	1559.1 ± 1.2	43.52 ± 0.92
318.15 K	0.704 ± 0.014	1554.2 ± 1.2	35.85 ± 0.76
323.15 K	0.83 ± 0.017	1549.4 ± 1.2	29.83 ± 0.63
328.15 K	0.967 ± 0.02	1544.6 ± 1.2	25.2 ± 0.53
333.15 K	1.11 ± 0.022	1539.8 ± 1.2	21.52 ± 0.45
338.15 K	1.28 ± 0.026	1535 ± 1.2	18.46 ± 0.39
343.15 K	1.45 ± 0.029	1530.2 ± 1.2	16.08 ± 0.34
348.15 K	1.63 ± 0.033	1525.5 ± 1.2	14.06 ± 0.3
353.15 K	1.81 ± 0.037	1520.7 ± 1.2	12.44 ± 0.26

Cn1cc[n+](CC#N)c1.O=S(=O)([N-]S(=O)(=O)C(F)(F)F)C(F)(F)F
Conditions	electrical conductivity [S/m]	mass density [kg/m3]	viscosity [mPa·s]
283.15 K	0.0283 ± 0.0006	1625.9 ± 1.2	1140 ± 50
288.15 K	0.0439 ± 0.001	1620.5 ± 1.2	708.6 ± 28
293.15 K	0.0648 ± 0.0014	1615 ± 1.2	463.4 ± 16
298.15 K	0.0919 ± 0.0019	1609.7 ± 1.2	315.5 ± 10
303.15 K	0.129 ± 0.0027	1604.6 ± 1.2	222.8 ± 6.4
308.15 K	0.173 ± 0.0036	1599.6 ± 1.2	162.4 ± 4.2
313.15 K	0.225 ± 0.005	1594.6 ± 1.2	121.7 ± 2.9
318.15 K	0.285 ± 0.006	1589.8 ± 1.2	93.56 ± 2.1
323.15 K	0.36 ± 0.007	1584.8 ± 1.2	73.61 ± 1.6
328.15 K	0.441 ± 0.009	1579.9 ± 1.2	58.99 ± 1.2
333.15 K	0.536 ± 0.011	1575.1 ± 1.2	47.93 ± 1
338.15 K	0.644 ± 0.013	1570.2 ± 1.2	39.7 ± 0.84
343.15 K	0.756 ± 0.015	1565.4 ± 1.2	33.27 ± 0.7
348.15 K	0.878 ± 0.018	1560.6 ± 1.2	28.11 ± 0.59
353.15 K	1.01 ± 0.02	1555.8 ± 1.2	24.06 ± 0.51
